In publication PMC11221189, “Gut microbiota DPP4-like enzymes are increased in type-2 diabetes and contribute to incretin inactivation” (Genome Biology, 2024):
Several values for one entry are separate records, joined by “and”; a condition that tells them apart may be missing. Identical values can stand only once. Entries after “also recorded” stand apart in the source; their conditions may differ. Peptide text beside a SMILES is read from it. * marks the point of attachment. pNA = O=[N+]([O-])c1ccc(N*)cc1

Tests used:
pmDPP4Δ23 = pmDPP4Δ23 (Parabacteroides merdae, UniProt A0AA37KD06); type: biochemical; conditions: for Effect on pmDPP4Δ23 hydrolytic activity (in words): gpPNA hydrolysis; for EC50 pmDPP4: gpPNA substrate, non-linear fit, sitagliptin and linagliptin data did not fit (R^2 ND)
depression-like behavior = conditions: obesogenic diet; cited from earlier work
[1] = system: T1, pmDPP4Δ23 (headed pmDPP4 in Table 1 and Table S1); assay: Colorimetric steady-state kinetics of gpPNA hydrolysis (0.31 to 2.5 mM) without inhibitor, 50 mM Tris-HCl pH 8.3, 37 °C, 380 nm, Lineweaver-Burk analysis.; type: biochemical; conditions: SD, n = 3; read-out: Km (mM), inhibitor 0 nM
T1 construct: N-terminal 6 x His tag; expressed from pET15b in E. coli BL21-DE3; dimer in solution
Method: (§1) The hydrolytic activity of the bacterial DPP4 enzyme was measured using Gly-Pro p-nitroanilide hydrochloride (gpPNA) (Sigma), as described for assessing hsDPP4 activity. […] Briefly, 20 µL of each cell-free supernatant was placed in triplicate in a flat 96-well plate. Two hundred microliters of the respective PNA solutions were plated in duplicate to obtain the standard curve. […] The enzymatic activity ([PNA generated (nM) / hydrolysis time (min)] / pmole enzyme) was quantified between 10 and 30 min of incubation time (linear kinetics). Three independent experiments with different purified protein batches were performed. The same protocol was followed for the murine samples (cecal content and plasma from the portal vein). In the case of the cecal content, the values of DPP4 activity were normalized by the amount of protein, quantified by the Bradford method (Bio-Rad, Hercules, CA).
Figure S3. Gliptin inhibition kinetics on pmDPP4Δ23. Lineweaver-Burk double-reciprocal (1/V and 1/S) plots showing pmDPP4Δ23 (bottom panels) and hsDPP4 (top panels) […]
(100 nM, burgundy lines) concentrations. The apparent Km was calculated respectively from inhibitor-associated data points using linear regression to find intersection point at the y-axis (1/S). V, reaction velocity (nmol PNA min-1 pmole enzyme-1); S, substrate concentration (mM gpPNA).
(1 picture or pasted object on this page, not shown here) […]

[2] = system: T1, pmDPP4Δ23 (headed pmDPP4 in Table 1 and Table S1); assay: Overall Km for gpPNA without inhibitor, from the colorimetric kinetics at pH 8.3 and 37 °C.; type: biochemical; conditions: read-out: overall estimated Km
Method: as §1

pmDPP4Δ23, sequence (A0AA37KD06 entry or part of it, stated change not applied): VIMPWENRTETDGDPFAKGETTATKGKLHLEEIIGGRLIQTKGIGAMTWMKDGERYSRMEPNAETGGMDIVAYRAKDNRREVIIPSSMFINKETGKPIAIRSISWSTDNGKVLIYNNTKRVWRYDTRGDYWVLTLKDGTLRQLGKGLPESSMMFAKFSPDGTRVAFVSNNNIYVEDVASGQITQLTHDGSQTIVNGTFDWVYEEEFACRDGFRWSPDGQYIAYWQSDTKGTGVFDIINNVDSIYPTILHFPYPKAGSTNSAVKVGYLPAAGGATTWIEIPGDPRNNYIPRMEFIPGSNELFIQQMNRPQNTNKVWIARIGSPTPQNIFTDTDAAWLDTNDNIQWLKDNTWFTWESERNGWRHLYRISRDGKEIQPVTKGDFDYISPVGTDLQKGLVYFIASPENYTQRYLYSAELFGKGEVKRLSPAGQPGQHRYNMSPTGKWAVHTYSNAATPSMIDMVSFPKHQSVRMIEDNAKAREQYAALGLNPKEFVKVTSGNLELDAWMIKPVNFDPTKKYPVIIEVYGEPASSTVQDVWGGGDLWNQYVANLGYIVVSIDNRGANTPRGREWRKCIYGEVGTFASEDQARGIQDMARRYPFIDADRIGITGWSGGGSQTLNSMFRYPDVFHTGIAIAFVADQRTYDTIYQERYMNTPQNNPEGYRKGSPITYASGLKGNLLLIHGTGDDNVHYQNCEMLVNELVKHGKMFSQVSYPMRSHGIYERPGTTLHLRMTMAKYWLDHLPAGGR

SMILES	Effect on pmDPP4Δ23 hydrolytic activity (in words) (pmDPP4Δ23)	EC50 pmDPP4 (pmDPP4Δ23)	also measured
CC#CCn1c(N2CCC[C@@H](N)C2)nc2c1c(=O)n(Cc1nc(C)c3ccccc3n1)c(=O)n2C [Linagliptin, linagliptin]	not inhibited; also recorded: almost null effect; also recorded: minimally inhibited	–	–
N#C[C@@H]1C[C@@H]2C[C@@H]2N1C(=O)[C@@H](N)C12CC3CC(CC(O)(C3)C1)C2 [Saxagliptin, saxagliptin]	–	nanomolar range	–
N[C@@H](CC(=O)N1CCn2c(nnc2C(F)(F)F)C1)Cc1cc(F)c(F)cc1F [Sitagliptin, sitagliptin]	not inhibited; also recorded: almost null effect; also recorded: minimally inhibited	–	Depression-like behavior associated with increased systemic DPP4 activity (depression-like behavior): counteracted
N#C[C@@H]1CCCN1C(=O)CNC12CC3CC(CC(O)(C3)C1)C2 [Vildagliptin, vildagliptin]	–	nanomolar range	–
NCC(=O)N1CCC[C@H]1C(=O)Nc1ccc([N+](=O)[O-])cc1 [gpPNA, Gly-Pro p-nitroanilide] (H-Gly-Pro-pNA)	–	–	Km [1]: 1.6 mM and 1.79 mM and 1.66 mM and 1.46 mM; Km [2]: 1630 µM
